In a melting point compilation (Tetko et al.; mined from patent text by program, amines drawn as free bases though some values may be those of a salt):

Row | melting point [°C] | SMILES
1 | 189 to 191 | O=C(NO)c1ccc(CNC(=O)c2[nH]c(-c3cccs3)cc2-c2ccc(F)cc2)cn1
2 | 76 to 77 | COC(=O)CNC(=O)CC(=O)CBr
3 | 51 | CC(=O)OC1CSC(Oc2cccc(-c3ncccc3F)c2)C(OC(C)=O)C1OC(C)=O (stereo not drawn)
4 | 92 to 93 | NC(=O)CCc1cccc2c1C[C@@H](CCCCc1ccccc1)O2
5 | 50 | O=C(Cc1cccc2ccccc12)N1CCC(c2nccc3occc23)CC1
6 | 202 to 206 | COc1ccccc1C(=O)NS(=O)(=O)c1ccc(NC(=O)C2CCCC2)cc1
7 | 78 to 79 | Brc1ccc2ccncc2c1
8 | 101 to 103 | O=C1NC(C(=O)NCCO[N+](=O)[O-])C(c2cccs2)O1 (stereo not drawn)
9 | 193 to 200 | COc1ccc(CC2CCC3NC(=O)C(CO)CC3C2)cc1 (stereo not drawn)
10 | 161 to 165 | COc1cc2c(cc1S(C)(=O)=O)nc(C)n2C(C)C
11 | 132 to 134 | Cc1cc(C(C)(O)c2ccc(C(F)(F)F)cn2)ccc1NC(=O)OC(C)(C)C (stereo not drawn)
12 | 141 to 142 | CNC(=O)C1=CC(CF)(CF)Oc2cc(Cl)c(Cl)cc21
13 | 132 to 134 | CCC(CC)N(O)C(=O)Nc1ccc(Cc2ccccc2)cc1
14 | 140 to 141 | CCOC(=O)Cc1ccc(-c2nc(COc3ccc(COc4nn(-c5ccccc5)cc4/C=C\c4cnn(CC)c4)cc3OC)c(C)o2)cc1
15 | > 300 | CC(=O)OCC1OC(n2c3ncccc3c3c4c(c5c6cccnc6[nH]c5c32)C(=O)N(CO)C4=O)C(OC(C)=O)C(OC(C)=O)C1OC(C)=O (stereo not drawn)
16 | 133 to 135 | CCn1c(=O)n(OCc2ccccc2)c(=O)c2cc(F)c(F)cc21
17 | 34 to 36 | CCCCCCCCCCCC/C=C/c1ccc2c(c1)OCO2
18 | 97 to 98 | CS(=O)(=O)OCCCc1ccc(SCc2coc(/C=C/c3ccccc3)n2)cc1
19 | 160 to 161 | CCCc1c(Cc2ccccc2)ccc2c(=O)cc(CCC(=O)O)oc12
20 | 144 to 146 | CN(C)C(=O)C1(c2cc(C#N)ccc2O)CCCC1
21 | 239 to 240 | COc1cc(Nc2c(C#N)cnc3cc(-c4ccc(CO)cc4)sc23)c(Cl)cc1Cl
22 | 136 to 137 | CN1C(=O)Cc2cc(C(=O)CN3CCN(c4ccccc4)CC3)cnc21
23 | 186 to 188 | Cc1cccc(-c2cncc(Nc3ccc(Cl)cc3)n2)n1
24 | 44 | CCCCCCCCCCCCCCCCCC(=O)NCC(C)(C)COC(=O)CCc1cc(C(C)(C)C)c(O)c(C(C)(C)C)c1
25 | 216 to 222 | O=C(O)C1CN(S(=O)(=O)c2ccc3cc(Br)ccc3c2)CCN1C(=O)C1CCN(c2ccncc2)CC1 (stereo not drawn)

Row | melting point [°C] | SMILES
26 | 49 to 55 | CCOC(=O)c1[nH]c2ccc(C[C@H]3COC(=O)N3)cc2c1CCN(C)C
27 | 128 | CC(C)(C)c1cccc(S(=O)(=O)n2c(Cc3ccc(C(=O)O)cc3)cc3cc(C(F)(F)F)ccc32)c1
28 | 38 to 40 | CCCCCCCCCCCCCCOc1ccc(CC(=O)OC)cc1F
29 | 58 to 59.5 | CCCc1[nH]c(C(=O)OCC)c(CC)c1C
30 | 138 to 141 | CC(=O)c1ccc2c(c1)CCc1ccc(C#N)cc1S2
31 | 238 to 242 | COc1ccc(-c2nnc(O)nc2-c2ccc(OC)cc2)cc1
32 | 170 to 172 | CC(=O)C1Cc2cc(CCN3CCC(c4noc5cc(F)ccc45)CC3)sc2CN1 (stereo not drawn)
33 | 90 to 92 | CCOC(=O)C=Cc1ccc(OCC)c([N+](=O)[O-])c1
34 | 233 to 234 | CC(C)Nc1c(NCc2ccccc2)cc(C(=O)O)cc1S(N)(=O)=O
35 | 99 to 103 | COC(=O)c1ccc(C)nc1Oc1nc(OC)cc(OC)n1
36 | 247 to 250 | CN(Cc1ccc(NC(=O)C2=Cc3cc(-c4ccc(Cl)cc4)ccc3S(=O)(=O)CC2)cc1)C1CCOCC1
37 | 193 to 196 | CCCCC1(C(=O)N[C@@H](Cc2ccc(NC(=O)c3c(Cl)cccc3Cl)cc2)C(=O)OC)CCCC1
38 | 250 to 252 | CC(C)CC(=O)Oc1ccc2cc(C(=N)N)ccc2c1
39 | 128 to 129 | CCn1nc2c(N)nc3ccccc3c2c1CCCCOC(C)=O
40 | 69 to 78 | COC(=O)C1(C)CN(C(=S)Nc2ccc(Cl)cc2)N=C1c1ccc(Cl)cc1 (stereo not drawn)
41 | 84 to 88 | CCOC(=Cc1ccncc1)C(C)=O
42 | 217 | CNC1(c2ccc(C#CC(=O)Nc3ccc(-c4ccc(Cl)cc4)cc3)cc2)CC1
43 | 105 to 106 | C=C(Cl)C(=O)Nc1ccc(Cl)cc1
44 | 74 to 76 | C1COCCNCCSCCN1
45 | 150 to 153 | CC(C)C1(C)N=C(c2ncccc2C(=O)O)N(C#N)C1=O (stereo not drawn)
46 | 145 to 146 | COc1cc(COc2ncccc2CC(=O)O)ccc1OCc1nc(-c2ccccc2)oc1C
47 | 127 to 129 | CNS(=O)(=O)Cc1ccc2[nH]ccc2c1
48 | 213 to 216 | O=C(Cn1c(-c2ccc(Cl)cc2)nc2cccnc21)N1CCOCC1
49 | 114 to 116 | N#CCCNC(=S)C1=CC(CF)(CF)Oc2ccc([N+](=O)[O-])cc21
50 | 134 to 135 | N#CN1CCNC(c2ccccc2)c2ccccc2C1 (stereo not drawn)

Row | melting point [°C] | SMILES
51 | 158 to 160 | OCc1ccc(-c2ccc(-c3ccsc3)s2)s1
52 | 122 to 124 | COc1cc(C(C)=O)cc(OC)c1OCCCC(=O)O
53 | 185 to 186 | COc1cc(/C=C/c2nc3ccccc3c(=O)o2)ccc1OC(C)=O
54 | 226 to 228 | CCCc1nc2c(N)nc3cc(Br)ccc3c2n1NC(C)C
55 | 60 to 62 | CC(C)[C@H]1COC(=O)N1C(=O)[C@@H](CC(=O)N(C)Cc1ccccc1)Cc1ccccc1
56 | 129 to 130 | c1csc(OCCOc2ccc3ccccc3c2)c1
57 | 147 to 149 | O=C(CC(CSc1nc2ccccc2s1)C(=O)NC1CCCCC1)NC1CCCCC1 (stereo not drawn)
58 | 227 to 228 | Cc1ccccc1C(=O)Nc1ccc(C(=O)N2CCCC(N(C)CC#N)c3ccccc32)cc1 (stereo not drawn)
59 | 226 to 227 | O=C(O)C1=Cc2ccc(Cl)cc2SC1C(F)(F)F (stereo not drawn)
60 | 105 to 107 | CCCCn1c(=O)c2c(ncn2S(=O)(=O)c2ccc(C(C)(C)C)cc2)n(CCCC)c1=O
61 | 155 to 156 | FC(F)(F)c1cc(N2CCN(Cc3n[nH]c4ccccc34)CC2)cc(C(F)(F)F)c1
62 | 70 to 71 | COP(=O)(Cc1ccc(-c2ccccc2)cc1)OC
63 | > 250 | Cn1[nH]c(=O)n(-c2cc(F)c(C(=O)Cl)cc2F)c1=O
64 | 287 to 291 | O=c1c2cc(F)ccc2[nH]c2c([N+](=O)[O-])ccc(Cl)c12
65 | 180 to 181 | COc1cc(C)nc(NC(=O)NS(=O)(=O)c2csc3ccccc23)n1
66 | 177 to 179 | O=C1NC(=O)N2C(c3ccccc3)SC[C@@H]12 (stereo partly drawn)
67 | 68 to 69 | CNC(=O)[C@H](Cc1ccc2ccccc2c1)NC(=O)C(CCOc1c(F)c(F)c(F)c(F)c1F)CC(=O)O (stereo partly drawn)
68 | 114 to 115 | O=C(CCCCBr)NC(=O)C1CC1
69 | 40 to 42 | COC(=O)c1cnn(OCCCC2OCCO2)c1
70 | 71 to 73 | CC(=O)C[C@@H](Cc1ccccc1)C(=O)O
71 | 122 | Clc1ccc2c(c1)N=C(c1ccncc1)c1ccccc1O2
72 | 85 to 86 | CCCCCC(=O)Nc1ccc2ccn(CCCCCCCC#N)c2c1
73 | 130 to 132 | CCOC(=O)C1=C(C)NC(=S)N(C(=O)OCC)C1c1ccccc1[N+](=O)[O-] (stereo not drawn)
74 | 112 to 113 | O=C(O)CCCCCN(C(=O)c1ccc(Cl)cc1Cl)c1ccccc1-c1ccccc1
75 | 119 to 121 | C[C@@H](SN1CCOCC1)[C@](O)(Cn1cncn1)c1ccc(F)cc1F

Row | melting point [°C] | SMILES
76 | 78 to 80 | O=C(CC(=O)C(F)F)c1cccs1
77 | 116 to 117 | COc1cc(C)c(C(=O)c2c(C(F)(F)F)ccnc2Cl)cc1OCc1ccccc1
78 | 96 to 100 | COc1ccc(C(O)Cc2ccncc2)c2c1OCC2C (stereo not drawn)
79 | 137 to 138 | COc1ccc(C(=O)c2ccc(OCc3nc(-c4ccccc4)oc3C)nc2)c(O)c1
80 | 80 to 82 | O=C(O)CCS(=O)(=O)NCCOCCc1ccccc1
81 | 39 to 40 | CCOC(=O)CCCCCCCC1CC2=C(C1)C(=O)C(OC)=C(OC)C2=O
82 | 190 to 193 | Cc1cccc(Nc2cc(Nc3ccc(OCC(=O)N(C)C)c(Cl)c3)ncn2)c1
83 | 148 to 149 | O=C(O)Cc1ccc(OCCC(c2ccccc2)(c2ccccc2)c2ccccc2)cc1
84 | 248 | Cn1cncc1C(O)(c1ccoc1)c1ccc2c(c1)c(-c1cccc(Cl)c1)cc(=O)n2C (stereo not drawn)
85 | 214 to 215 | NCc1ccc(-c2nc(-c3ccc(F)cc3)c(-c3ccncc3)[nH]2)cc1
86 | 112 to 114 | CC(CS)C(=O)N1CCC=C1C(=O)O (stereo not drawn)
87 | 35 to 37 | CCCCc1ncc[nH]1
88 | 115 to 116 | CCOC(=O)COCCn1c(=O)[nH]c2ccccc2c1=O
89 | 269 to 270 | O=Cc1cccn1-c1ccc(C(=O)O)cc1
90 | 72 to 74 | O=C(c1ccc(F)cc1)c1noc(CN2CCN(c3ccccc3)CC2)n1
91 | 110 to 120 | CCOCc1nc2c(N)nc(C)c(C)c2n1NC(C)C
92 | 151 to 153 | O=C(N[C@@H](Cc1ccccc1)[C@H](O)CCl)OCc1ccccc1
93 | 196 to 198 | Cc1nn(-c2cc3nc(S(=O)(=O)Cc4ccccc4Cl)sc3cc2Cl)c(=O)n1C(F)F
94 | 120 to 123 | CCC(=O)c1cc(OCc2ccccc2)c(OC)cc1[N+](=O)[O-]
95 | 211 to 213 | COc1ccc(-c2cnc3[nH]cc(C(=O)C(C)(C)C)c3n2)cc1N1CCCC1
96 | 204 to 205 | O=C(O)CCc1cnoc1-c1ccc([N+](=O)[O-])cc1
97 | 96.5 to 97.5 | CCON=C(c1ccccc1SCc1ccc(Cl)cc1)n1ccnc1
98 | 197 to 205 | COc1cc(Nc2c(C#N)cnc3cc4cc(OCCN5CCN(C)CC5)c(OC)cc4cc23)c(Cl)cc1F

Row | SMILES | melting point [°C]
99 | O=S1(=O)NCCCN1CCc1ccncc1 | 124 to 125
100 | CC(Br)CCC(C)(N)P(O)O (stereo not drawn) | 146 to 148
101 | Cn1cncc1C(O)(c1ccc(Cl)cc1)c1ccc2c(c1)C(c1cccc(Cl)c1)=NCc1nnnn1-2 (stereo not drawn) | 240
102 | COc1cc2c(cc1C(F)(F)F)c(C(=O)Nc1cccnc1)cn2C | > 250
103 | COc1cccc(C2(N(C)C)CCC(C(O)Cc3ccccc3)CC2)c1 (stereo not drawn) | 72
